# Legend:
# [1] = system: E. coli BW25113 isolate 19-marR(V84G) rpoC(R1075C) ompR(R15S) acrB(T3791) acrR(indels); assay: Growth kinetics of isolated strain 19 with 20% v/v BMA
# E. coli BW25113 ΔacrR = assay: Growth in MSX medium with 20% (v/v) BMA, knock-out strain; assay type: cell-based, Escherichia coli; conditions: 20% (v/v) BMA added immediately after inoculation
# [2] = system: E. coli BW25113 isolate 21-marR(V84G) rpoC(R1075C) rpoC(A787V) ompR(R15S) acrB(V901l) acrR(indels); assay: Growth kinetics of isolated strain 21 with 20% v/v BMA
# [3] = system: E. coli MG1655 acrR(T32fs); assay: Growth in MSX medium with 20% (v/v) BMA, single mutation strain; assay type: cell-based, Escherichia coli; conditions: 20% (v/v) BMA added immediately after inoculation
# [4] = system: gene transcription in wild type; assay: Transcriptome analysis with added BMA, wild type
# Procedure: (§1) Transcriptome analysis was carried out to characterize transcriptional activity in mutant microorganisms using standard methods.
# (§2) Sample Preparation • 1) Streak strains onto fresh MSX agar (15 g/L) plates directly from the cryostocks and incubate overnight at 37° C. • 2) Isolate single colonies and inoculate pre-cultures in MSX, using 50 ml shake flasks. Incubate overnight at 37° C. and 250 rpm. • 3) Inoculate cultures in MSX to an initial OD600 of 0.05, using 250 mL pyrex shake flasks with 24/29 neck join. Incubate at 37° C. and 250 rpm. Do 4 biological replicates (3 replicates for sequencing plus one backup)—4 flasks per strain. • 4) Seal shake flasks with sterile Suba seals. To monitor OD, take samples using a sterile syringe and needle after first swabbing the Suba seals with 70% ethanol. Monitor OD. • 5) When OD reaches 0.3, collect first sample for RNA extraction (“before” sample) into a pre-chilled falcon. Keep samples on ice. • 6) Immediately after, add 20% (v/v) BMA. Re-incubate cultures. • 7) Quickly process the samples according to the RNeasy kit protocol, until step 6 of protocol 1. Always keep samples on ice and store it at −80° C. until further use, if possible, flash freeze in liquid nitrogen it before storing. • 8) One hour after the first sample collection/BMA addition, collect the second sample for RNA extraction (“after” sample). Proceed as explained before. • 9) Continue to monitor the OD until the cultures reach 24 h. • To summarise, each strain tested will have 6 samples to send for sequencing, 3 collected right before the addition and 3 collected one hour after, plus 1 “back-up” for before and after, in case something goes wrong during extraction (8 samples total). Besides the WT strain with the addition of BMA, samples were also collected from a WT culture with no BMA, one hour after reaching OD of 0.3, as a control.
# (§3) Transcription was compared for a double mutant and the wild-type in the presence and absence of BMA relative to the level in the wild type in the absence of BMA. For the avoidance of doubt the level in the table is the ratio of the level in the strain under the BMA exposure relative to the level in the wild type in the absence of added BMA.
# [5] = system: E. coli BW25113 isolate 23-soxR(R20L) rpoC(r1075C) 2133236( T> A) 3915915(T > G) acrR(indels); assay: Growth kinetics of isolated strain 23 with 20% v/v BMA
# E. coli BW 25113 = assay: Growth of E. coli BW25113 (wild type) with BMA in M9 minimal medium
# E. coli MG1655 = assay: Growth in MSX medium with 20% (v/v) BMA, wild type; assay type: cell-based, Escherichia coli
# [6] = system: gene transcription in strain 22; assay: Transcriptome analysis with added BMA, strain 22
# Procedure: as §1, §2, §3
# [7] = system: E. coli MG1655 soxR(R20H)acrR(V29G); assay: Growth in MSX medium with 20% (v/v) BMA, double mutant; assay type: cell-based, Escherichia coli
# [8] = system: E. coli BW25113 isolate 22-rob(R156H) rpoB(T1037P) groL(P279L) acrR(49Yfs) 1197659(C > A); assay: Growth kinetics of isolated strain 22 with 20% v/v BMA
# [9] = system: gene transcription in strain 2; assay: Transcriptome analysis with added BMA, strain 2
# Procedure: as §1, §2, §3
# [10] = BMA concentration increased further to 20% v/v
# [11] = Wild Type, 0.05% BMA (v/v), Table 2.2
# [12] = Wild Type, 0.1% BMA (v/v), Table 2.2
# [13] = 20% (v/v) BMA added immediately after inoculation
smiles,measurement,setting,value
"C=C(C)C(=O)OCCCC [BMA, butyl 2-methylprop-2-enoate]",Growth rate,[1],0.701 ± 0.007 h⁻¹
same,Lag time,[1],5 h
same,Max cell concentration,[1],0.653 ± 0.023 g/L
same,Growth in the presence of BMA,E. coli BW25113 ΔacrR,unable to grow
same,Growth rate,[2],0.703 ± 0.030 h⁻¹
same,Lag time,[2],5 h
same,Max cell concentration,[2],0.438 ± 0.022 g/L
same,Growth in the presence of BMA,[3],able to grow
same,IdhA transcription level relative to wild type without BMA,[4],0.59
same,acrA transcription level relative to wild type without BMA,[4],0.64
same,acrB transcription level relative to wild type without BMA,[4],0.98
same,adiY transcription level relative to wild type without BMA,[4],0.19
same,ariR transcription level relative to wild type without BMA,[4],0.44
same,asr transcription level relative to wild type without BMA,[4],0.22
same,bssR transcription level relative to wild type without BMA,[4],0.46
same,ibpA transcription level relative to wild type without BMA,[4],0.09
same,ibpB transcription level relative to wild type without BMA,[4],0.42
same,narG transcription level relative to wild type without BMA,[4],0.40
same,nirB transcription level relative to wild type without BMA,[4],0.06
same,nirD transcription level relative to wild type without BMA,[4],0.57
same,pspA transcription level relative to wild type without BMA,[4],0.04
same,pspB transcription level relative to wild type without BMA,[4],0.73
same,pspD transcription level relative to wild type without BMA,[4],0.14
same,pspc transcription level relative to wild type without BMA,[4],0.10
same,raiA transcription level relative to wild type without BMA,[4],0.11
same,rmf transcription level relative to wild type without BMA,[4],0.28
same,soxS transcription level relative to wild type without BMA,[4],0.24
same,spy transcription level relative to wild type without BMA,[4],3.91
same,ybfA transcription level relative to wild type without BMA,[4],0.39
same,ybhG transcription level relative to wild type without BMA,[4],0.19
same,ybiH transcription level relative to wild type without BMA,[4],0.04
same,ydgU transcription level relative to wild type without BMA,[4],7.95
same,yhjx transcription level relative to wild type without BMA,[4],1.72
same,yibT transcription level relative to wild type without BMA,[4],0.09
same,ymgA transcription level relative to wild type without BMA,[4],0.16
same,ymgC transcription level relative to wild type without BMA,[4],6.27
same,ynfM transcription level relative to wild type without BMA,[4],0.07
same,yohk transcription level relative to wild type without BMA,[4],0.13
same,Growth rate,[5],0.722 ± 0.019 h⁻¹
same,Lag time,[5],4 h
same,Max cell concentration,[5],0.529 ± 0.023 g/L
same,Growth rate,E. coli BW 25113; 0.01% v/v BMA,0.617 ± 0.009 h⁻¹
same,Lag phase,E. coli BW 25113; 0.01% v/v BMA,2 h
same,Max cell concentration,E. coli BW 25113; 0.01% v/v BMA,1.365 ± 0.120 g/L
same,Growth rate,E. coli BW 25113; 0.05% v/v BMA,0.517 ± 0.014 h⁻¹
same,Lag phase,E. coli BW 25113; 0.05% v/v BMA,4 h
same,Max cell concentration,E. coli BW 25113; 0.05% v/v BMA,1.269 ± 0.074 g/L
same,Growth rate,E. coli BW 25113; 0.1% v/v BMA,0.519 ± 0.010 h⁻¹
same,Lag phase,E. coli BW 25113; 0.1% v/v BMA,12 h
same,Max cell concentration,E. coli BW 25113; 0.1% v/v BMA,1.335 ± 0.074 g/L
same,Consistency of growth,E. coli BW 25113; [10],growth was inconsistent
same,Incubation time after which cell growth was observed,E. coli BW 25113; [10],24 to 36 h
same,BMA concentration that inhibits the growth of E. coli,"E. coli BW 25113; M9 minimal medium, 37° C.",above 0.05 % v/v
same,Growth rate,E. coli BW 25113; [11],0.517 ± 0.014 h⁻¹
same,Lag time,E. coli BW 25113; [11],4 h
same,Max cell concentration,E. coli BW 25113; [11],1.269 ± 0.074 g/L
same,Growth rate,E. coli BW 25113; [12],0.519 ± 0.010 h⁻¹
same,Lag time,E. coli BW 25113; [12],12 h
same,Max cell concentration,E. coli BW 25113; [12],1.335 ± 0.074 g/L
same,Time after inoculation at which significant growth was exhibited,"E. coli BW 25113; […], same conditions",12 h
same,Growth in the presence of BMA,"E. coli MG1655; 20% (v/v) BMA added immediately after inoculation, WT",unable to grow
same,Time after which growth was observed,"E. coli MG1655; MSX medium containing 20% (v/v) BMA, 30 mL vials, 37° C., 250 rpm",72 h
same,IdhA transcription level relative to wild type without BMA,[6],25.80
same,acrA transcription level relative to wild type without BMA,[6],7.44
same,acrB transcription level relative to wild type without BMA,[6],7.17
same,adiY transcription level relative to wild type without BMA,[6],23.19
same,ariR transcription level relative to wild type without BMA,[6],12.95
same,asr transcription level relative to wild type without BMA,[6],225.15
same,bssR transcription level relative to wild type without BMA,[6],71.24
same,ibpA transcription level relative to wild type without BMA,[6],70.31
same,ibpB transcription level relative to wild type without BMA,[6],107.99
same,narG transcription level relative to wild type without BMA,[6],61.85
same,nirB transcription level relative to wild type without BMA,[6],20.40
same,nirD transcription level relative to wild type without BMA,[6],26.97
same,pspA transcription level relative to wild type without BMA,[6],47.39
same,pspB transcription level relative to wild type without BMA,[6],35.43
same,pspD transcription level relative to wild type without BMA,[6],38.90
same,pspc transcription level relative to wild type without BMA,[6],39.73
same,raiA transcription level relative to wild type without BMA,[6],52.61
same,rmf transcription level relative to wild type without BMA,[6],17.43
same,soxS transcription level relative to wild type without BMA,[6],3.66
same,spy transcription level relative to wild type without BMA,[6],45.77
same,ybfA transcription level relative to wild type without BMA,[6],36.33
same,ybhG transcription level relative to wild type without BMA,[6],21.92
same,ybiH transcription level relative to wild type without BMA,[6],16.75
same,ydgU transcription level relative to wild type without BMA,[6],94.74
same,yhjx transcription level relative to wild type without BMA,[6],902.70
same,yibT transcription level relative to wild type without BMA,[6],77.30
same,ymgA transcription level relative to wild type without BMA,[6],6.44
same,ymgC transcription level relative to wild type without BMA,[6],5.45
same,ynfM transcription level relative to wild type without BMA,[6],61.15
same,yohk transcription level relative to wild type without BMA,[6],19.75
same,Tolerance to BMA,[7]; 20% (v/v) BMA added during mid-exponential phase,enhanced tolerance to BMA compared to the soxR(R20H) mutation alone
same,Growth compared with the single mutant with the soxR mutation,[7]; [13],able to grow better than the single mutant
same,Growth in the presence of BMA,[7]; [13],able to grow
same,Growth rate,[8],0.701 ± 0.015 h⁻¹
same,Lag time,[8],4 h
same,Max cell concentration,[8],0.523 ± 0.024 g/L
same,IdhA transcription level relative to wild type without BMA,[9],11.32
same,acrA transcription level relative to wild type without BMA,[9],7.33
same,acrB transcription level relative to wild type without BMA,[9],6.68
same,adiY transcription level relative to wild type without BMA,[9],5.37
same,ariR transcription level relative to wild type without BMA,[9],35.30
same,asr transcription level relative to wild type without BMA,[9],95.27
same,bssR transcription level relative to wild type without BMA,[9],15.30
same,ibpA transcription level relative to wild type without BMA,[9],20.83
same,ibpB transcription level relative to wild type without BMA,[9],84.03
same,narG transcription level relative to wild type without BMA,[9],11.38
same,nirB transcription level relative to wild type without BMA,[9],8.77
same,nirD transcription level relative to wild type without BMA,[9],4.33
same,pspA transcription level relative to wild type without BMA,[9],15.40
same,pspB transcription level relative to wild type without BMA,[9],11.46
same,pspD transcription level relative to wild type without BMA,[9],11.22
same,pspc transcription level relative to wild type without BMA,[9],11.88
same,raiA transcription level relative to wild type without BMA,[9],14.09
same,rmf transcription level relative to wild type without BMA,[9],7.05
same,soxS transcription level relative to wild type without BMA,[9],4.10
same,spy transcription level relative to wild type without BMA,[9],22.92
same,ybfA transcription level relative to wild type without BMA,[9],18.45
same,ybhG transcription level relative to wild type without BMA,[9],6.87
same,ybiH transcription level relative to wild type without BMA,[9],8.65
same,ydgU transcription level relative to wild type without BMA,[9],31.80
same,yhjx transcription level relative to wild type without BMA,[9],7.35
same,yibT transcription level relative to wild type without BMA,[9],36.87
same,ymgA transcription level relative to wild type without BMA,[9],35.59
same,ymgC transcription level relative to wild type without BMA,[9],42.36
same,ynfM transcription level relative to wild type without BMA,[9],14.42
same,yohk transcription level relative to wild type without BMA,[9],8.45

# Source: patent US11781160B2, “Methods for the production of methacrylates” (priority 2018, dated 2023)
